Laboratory results as given in patent US11213527B2, “Inhibitory effect of low molecular weight compound on cancer and fibrosis” (NATIONAL UNIVERSITY CORPORATION TOTTORI UNIVERSITY, priority 2014, dated 2022).

How the values were obtained:
Wnt/β-catenin signal = assay: Luciferase assay in liver stellate cells (LX-2); format: cell-based, human
Protocol: A human liver stellate cell line (LX-2 cells) was maintained and cultured in a DMEM containing 10% FBS. The cells used for experiments were suspended in a DMEM containing 1% FBS and plated. The cell density was at about 2.0×10^5 cell/cm^2.
A luciferase assay was used to investigate an inhibitory effect of each low-molecular-weight compound on a Wnt/β-catenin signal. The luciferase assay was conducted under conditions indicated in FIG. 40 and the following sections 9.3.1 to 9.3.2. FIG. 40 illustrates a protocol when the cells were treated with a low-molecular-weight compound+TGFβ. Substantially the same experiment was carried out when the cells were treated with a low-molecular-weight compound alone or a low-molecular-weight compound+Wnt3a. Note that TGFβ or Wnt3a was added so as to increase the intensity of a Wnt/β-catenin signal.
First, 5×Passive Lysis Buffer was diluted 5-fold with MilliQ water. The lysis buffer was added at 100 μl/well and the plate was shaken for 20 min. The lysate was frozen at −30° C. overnight.
The sample frozen a day before, LARII, a Stop&Glo buffer, and a Stop&Glo substrate (materials other than the sample were shaded) were incubated at room temperature for about 1 h. A Stop&Glo solution (49 μl of the Stop&Glo buffer and 1 μl of the Stop&Glo substrate) was prepared for the number of the samples+1. Next, 50 μl of the LARII was dispensed into a 3.5-ml tube. Then, 10 μl of the sample was added and the tube was set in a measurement instrument. After completion of the first assay, 50 μl of the Stop&Glo solution was added and the tube was again set in the measurement instrument for another assay.

[1] = tested on: CD44-negative and CD44-positive HuH7 cells; assay: Sphere formation capability of sorted HuH7 cells; format: cell-based, human; conditions: 50 μM IC-2, 10 μM PN-3-13; one week
Protocol: First, HuH7 cells were collected. Next, the cells were stained with an anti-human CD44 monoclonal antibody (Cell Signaling Technology Inc., Danvers, Mass., USA)), and then with an Alexa 488-labeled goat anti-mouse IgG antibody. After that, a Beckman Coulter-MoFlo XDP (Beckman Coulter Inc., Fullerton, Calif., USA) was used to sort the cells into a CD44-negative fraction and a CD44-positive fraction. The sorted cells were seeded at 5×10^4 cells/well on a 24-well ultra-low-attachment multiwell plate (Corning, N.Y., USA). Subsequently, the cells were cultured at 37° C. in the presence of 5% CO2 in a DMEM/Nutrient Mixture F-12 Ham (Sigma-Aldrich, St. Louis, Mo., USA) containing 20 ng/mL of recombinant human epidermal growth factor, 20 ng/mL of human basic fibroblast growth factor, 1×B27, and L-glutamine. Twenty-four hours after the plating, 1% DSMO, 50 μM IC-2, and 10 μM PN-3-13 were each added to the corresponding well and the cells were further cultured. One week after the chemical treatment, the number of spheres (with a size of 100 μm or larger) in 15 visual fields/well was counted.

liver fibrosis = assay: Liver disease model mice (carbon tetrachloride-induced liver fibrosis); format: in vivo, C57BL/6 male mice; conditions: IC-2 10.6 or 21.2 mg/kg intraperitoneally 3 times a week for 4 weeks, vs vehicle
Protocol: First, 7-week-old C57BL/6 male mice (Japan SLC, Shizuoka, Japan) were subject to 1-week preparatory rearing. Among them, healthy mice were used. The mice were housed in an animal cage at a room temperature of 22±1° C. and a humidity of 50±5% throughout the preparatory rearing and experimental period and were given ad libitum access to food and water.
A microsyringe (ITO CORPORATION, Shizuoka, Japan) was used to intraperitoneally administer carbon tetrachloride (CCl4: Wako Pure Chemical Industries, Ltd., Osaka, Japan) at 0.2 ml/kg, 3 times a week, for 4, 6, or 8 weeks. Carbon tetrachloride was dissolved into cone oil (Wako Pure Chemical Industries, Ltd.) at a concentration of 10%. The resulting solution was used. After this carbon tetrachloride solution was administered for 4 weeks, the mice were divided into a vehicle administration group, a glycyrrhizin administration group, an ICG-001 administration group, and an IC-2 administration group. Then, a microsyringe was used to intraperitoneally administer, 3 times a week for 4 weeks, carbon tetrachloride and a drug solution prepared in accordance with the following process. Note that the carbon tetrachloride and the drug solution were alternately administered with one-day interval.
Glycyrrhizin (TOKYO CHEMICAL INDUSTRY CO., LTD., Tokyo, Japan) was dissolved in physiological saline. The solution was prepared at a concentration of 30 mg/ml while the pH was adjusted to 7.0 with 4 M NaOH liquid. IC-2 and ICG-001 (AdooQ BioScience, California, USA) were each dissolved in a WellSolve (Celeste Corporation, Tokyo, Japan) at a concentration of 40 mg/ml and 10 mg/ml, respectively. Next, the mixture was heated for 10 min in a hot water bath at 60° C. and was then completely dissolved. A 9-fold volume of physiological saline was added to the WellSolve solution in which the above drugs had each been dissolved. […] Note that an IC-2 dosage was determined on the basis of an effective concentration in vitro. […]

With O=C1[C@H](Cc2ccccc2)N2C(=O)CCN(C(=O)NCc3ccccc3)[C@H]2CN1Cc1cccc2ccccc12 [IC-2] the “inhibition of a Wnt/β-catenin signal in the LX-2 cells” value (“inhibition of a Wnt/β-catenin signal” for short) (Wnt/β-catenin signal; compound alone, 24 hours) was “resulted in inhibition”, the “inhibition of a Wnt/β-catenin signal” value (Wnt/β-catenin signal; compound alone, 48 hours) was “resulted in inhibition” and the “inhibition of a Wnt/β-catenin signal” value (Wnt/β-catenin signal; compound+TGFβ, 24 hours) was “resulted in inhibition”. The “inhibition of a Wnt/β-catenin signal” value (Wnt/β-catenin signal; compound+TGFβ, 48 hours) was “resulted in inhibition”, the “inhibition of a Wnt/β-catenin signal” value (Wnt/β-catenin signal; compound+Wnt3a, 24 hours) was “resulted in inhibition” and the “formation of spheres, CD44-negative HuH7 cells” value [1] was “inhibited formation of spheres”. For the same compound, the “formation of spheres, CD44-positive HuH7 cells” value [1] was “inhibited formation of spheres”, the “fibrosis area (Sirius red staining)” value (liver fibrosis) was “a decrease in the fibrosis area was detected” and the content of hydroxyproline (liver fibrosis; glycyrrhizin 150 mg/kg) was “a large decrease was observed”.
